Experimental data: publication PMC6511062, “Preclinical candidate for the treatment of visceral leishmaniasis that acts through proteasome inhibition” (Proceedings of the National Academy of Sciences of the …, 2019)
“Also recorded” adds a separate entry of the source.

Key:
[1] = tested on: ubiquitylated proteins in L. donovani axenic amastigotes; assay: Western blot of ubiquitylated proteins in axenic amastigotes; format: cell-based, Leishmania donovani; conditions: dose-dependent
Protocol: (§1) k. Proteasome activity assays
Compounds were dispensed into black 384-well assay plates (Greiner) by acoustic dispensing (LabCyte ECHO). For potency determinations, eleven-point, one in three dilution curves were generated, with a top concentration of 100 µM. Three proteasome activities were measured using a commercially available indirect enzyme-based luminescent assay kit (Promega) with Suc-LLVY-aminoluciferin, Z-LRR-aminoluciferin and Z-nLPnLD-aminoluciferin used as substrates for chymotrypsin-like, trypsin-like and caspase-like activities, respectively. In addition to proteasome samples: L. donovani and THP1-enriched proteasomes, commercially available human purified 26S proteasome (Boston Biochem) was also assessed. Proteasome final assay concentration were 0.025 mg/ml for L. donovani and THP1-enriched proteasomes and 1 nM for human purified 26S proteasome. […]
Substrate solution was then added and after 30 min of incubation luminescent signal was measured in an Envision reader (PerkinElmer). […]
(§2) value) were used as negative and positive controls, respectively. […] Protein concentrations were determined by standard Bradford assays and Laemmli sample buffer was added to samples. […]
Figure S6. […] Ubiquitin proteins were detected using the human anti-ubiquitin P4D1 antibody diluted 1:1,000. […]

[2] = tested on: caspase activity of the L. donovani proteasome; assay: Proteasome activity assay, caspase-like, L. donovani; format: biochemical, Leishmania donovani
Protocol: as §1
(§3) Compounds were dispensed into black 384-well assay plates (Greiner) by acoustic dispensing (LabCyte ECHO). For potency determinations, eleven-point, one in three dilution curves were generated, with a top concentration of 100 µM. Three proteasome activities were measured using a commercially available indirect enzyme-based luminescent assay kit (Promega) with Suc-LLVY-aminoluciferin, Z-LRR-aminoluciferin and Z-nLPnLD-aminoluciferin used as substrates for chymotrypsin-like, trypsin-like and caspase-like activities, respectively. In addition to proteasome samples: L. donovani and THP1-enriched proteasomes, commercially available human purified 26S proteasome (Boston Biochem) was also assessed. Proteasome final assay concentration were 0.025 mg/ml for L. donovani and THP1-enriched proteasomes and 1 nM for human purified 26S proteasome. Proteasome solution was added to the plates containing the compounds one hour before adding the proteasome substrate solution.
(§4) Substrate solution was then added and after 30 min of incubation luminescent signal was measured in an Envision reader (PerkinElmer).
(§5) Cultures of L. donovani axenic amastigotes were diluted to either 8 x 106 or 8 x 107 […]
value. […]
as §2

[3] = target: chymotrypsin-like activity of the L. donovani proteasome (Leishmania donovani, UniProt A0A3S7XA80+A0ACM8QMP6); assay: biochemical
Sequence of chymotrypsin-like activity of the L. donovani proteasome (Leishmania donovani, UniProt A0A3S7XA80+A0ACM8QMP6) (A0ACM8QMP6 100-302): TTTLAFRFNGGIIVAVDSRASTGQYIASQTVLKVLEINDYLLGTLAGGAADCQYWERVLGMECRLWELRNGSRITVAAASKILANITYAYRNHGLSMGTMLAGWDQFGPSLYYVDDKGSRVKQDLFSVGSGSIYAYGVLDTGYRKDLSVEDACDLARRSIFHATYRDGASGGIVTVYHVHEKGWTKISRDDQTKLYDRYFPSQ
Sequence of chymotrypsin-like activity of the L. donovani proteasome (Leishmania donovani, UniProt A0A3S7XA80+A0ACM8QMP6) (A0A3S7XA80 1-206): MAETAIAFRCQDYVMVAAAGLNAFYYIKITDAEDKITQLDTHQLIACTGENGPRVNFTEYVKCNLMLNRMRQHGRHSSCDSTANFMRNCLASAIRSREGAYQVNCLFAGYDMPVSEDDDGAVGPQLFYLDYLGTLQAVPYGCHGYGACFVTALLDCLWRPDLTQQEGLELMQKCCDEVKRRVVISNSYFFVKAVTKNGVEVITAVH
Protocol: (§6) An in vitro assay was developed that enabled the chymotrypsin-like activity and additional proteolytic activities associated with the proteasome to be directly monitored within proteasome-enriched parasite cell lysates. Likewise, human proteasome from two sources (i.e., commercially pure 26S and enriched proteasome fractions from THP-1 lysates) was tested using the same biochemical assays.
(§7) Proteasome enrichment by ultracentrifugation
(§8) The protocol described by Kisselev et al.34 was adapted to enrich the proteasomes present in L. donovani and THP1 crude extracts. L. donovani or THP1 cells were resuspended in sucrose buffer (50 mM Tris buffer pH 7.5, 5 mM Magnesium chloride, 1 mM EDTA, 50 mM NaCl, 250 mM sucrose, 2 mM ATP, 1 mM DTT) and lysed by nitrogen cavitation for 15 min (110 bars of 1500 psi). Lysates were centrifuged at 20,000g for 30 min at 4 °C and supernatants containing soluble protein were subjected to an ultracentrifugation step at 300,000g for 2h at 4 °C. The resulting proteasome-containing pellets were resuspended in sucrose buffer and left on ice for 30 min to complete solubilization. Samples were centrifuged for 10 min at 20,000 g to remove insoluble material. Proteins contained in supernatant (proteasome enriched fraction) were measured by Bradford.

[4] = target: chymotrypsin-like activity of the L. donovani proteasome (Leishmania donovani, UniProt A0A3S7XA80+A0ACM8QMP6, G197C/T30A); assay: biochemical
Sequence of chymotrypsin-like activity of the L. donovani proteasome (Leishmania donovani, UniProt A0A3S7XA80+A0ACM8QMP6, G197C/T30A) (A0ACM8QMP6 entry or part of it, stated change not applied): as the sequence (A0ACM8QMP6 100-302) above
Sequence of chymotrypsin-like activity of the L. donovani proteasome (Leishmania donovani, UniProt A0A3S7XA80+A0ACM8QMP6, G197C/T30A) (A0A3S7XA80 whole entry, stated change not applied): as the sequence (A0A3S7XA80 1-206) above
Protocol: as §6, §7, §8

[5] = tested on: trypsin activity of the L. donovani proteasome; assay: Proteasome activity assay, trypsin-like, L. donovani; format: biochemical, Leishmania donovani
Protocol: as §1, §3, §4, §5
value. […]
as §2

SMILES: O=C(Nc1ccc(F)c(-c2ccn3c(N4CCOCC4)cnc3n2)c1)N1CCCC1 [Compound 8]
- accumulation of ubiquitylated proteins [1]: dose-dependent manner; also recorded: induces the accumulation of ubiquitylated proteins
- effect on caspase activity [2]: no effect
- IC50 [3]: 160 ± 10 nM
- IC50 [4]: > 100000 nM
- effect on trypsin activity [5]: no effect
